According to article PMC7926793, “Synthesis and Biological Evaluation of 1-(Diarylmethyl)-1H-1,2,4-triazoles and 1-(Diarylmethyl)-1H-imidazoles as a Novel Class of Anti-Mitotic Agent for Activity in Breast Cancer” (Pharmaceuticals, 2021):
pIC50: −log10 of the molar value. Values joined by “and” are separate entries in the source; they are usually repeats but may differ in a detail not shown here. Equal entries are not always repeated.

Key:
[1] = tested on: SK-MEL-28; experiment: NCI 60 cell line screen (Melanoma); type: cell-based, human; conditions: SK-MEL-28, single dose 10 µM
[2] = tested on: SW-620; experiment: NCI 60 cell line screen (Colon Cancer); type: cell-based, human; conditions: for GI50: Homo sapiens, SW-620, NCI 5 dose assay; for Growth percentage: SW-620, single dose 10 µM
[3] = tested on: SF539; experiment: NCI 60 cell line screen (CNS Cancer); type: cell-based, human; conditions: for GI50: Homo sapiens, SF-539, SF539, NCI 5 dose assay; for Growth percentage: SF539, single dose 10 µM
[4] = tested on: HOP-92; experiment: NCI 60 cell line screen (Non-Small Cell Lung Cancer); type: cell-based, human; conditions: for Growth percentage: HOP-92, single dose 10 µM; for GI50: Homo sapiens, HOP-92, NCI 5 dose assay
[5] = tested on: A549/ATCC; experiment: as above; type: cell-based, human; conditions: for GI50: Homo sapiens, NCI 5 dose assay; for Growth percentage: single dose 10 µM
[6] = tested on: HCT-2998; experiment: NCI 60 cell line screen (Colon Cancer); type: cell-based, human; conditions: for Growth percentage: HCT-2998, single dose 10 µM; for GI50: Homo sapiens, 60 cell, HCT-2998, NCI 5 dose assay
[7] = tested on: MCF-10A non-tumorigenic human mammary epithelial cells; experiment: toxicity evaluation, alamarBlue assay; type: cell-based; conditions: 10 μM, 24 h
[8] = tested on: KM12; experiment: NCI 60 cell line screen (Colon Cancer); type: cell-based, human; conditions: for GI50: Homo sapiens, KM12, NCI 5 dose assay; for Growth percentage: KM12, single dose 10 µM
[9] = tested on: HOP-62; experiment: NCI 60 cell line screen (Non-Small Cell Lung Cancer); type: cell-based, human; conditions: for Growth percentage: HOP-62, single dose 10 µM; for GI50: Homo sapiens, HOP-62, NCI 5 dose assay
[10] = tested on: tubulin (microtubule network) in MCF-7 cells; experiment: immunofluorescence confocal microscopy of microtubule network; type: cell-based, human; conditions: 10 μM, 16 h
Experimental: Confocal microscopy was used to study the effects of drug treatment on MCF-7 cytoskeleton. For immunofluorescence, MCF-7 cells were seeded at 1 × 10^5 cells/mL on eight chamber glass slides (BD Biosciences). […] Following treatment, cells were gently washed in PBS, fixed for 20 min with 4% paraformaldehyde in PBS, and permeabilised in 0.5% Triton X-100. Following washes in PBS containing 0.1% Tween (PBST), cells were blocked in 5% bovine serum albumin diluted in PBST. […] Following washes in PBST, the cells were mounted in Ultra Cruz Mounting Media (Santa Cruz Biotechnology, Santa Cruz, CA) containing 4,6-diamino-2-phenolindol dihydrochloride (DAPI). Images were captured by Leica SP8 confocal microscopy with Leica application suite X software. All images in each experiment were collected on the same day using identical parameters. Experiments were performed on three independent occasions.

[11] = tested on: EKVX; experiment: NCI 60 cell line screen (Non-Small Cell Lung Cancer); type: cell-based, human; conditions: for GI50: Homo sapiens, NCI 5 dose assay; for Growth percentage: single dose 10 µM
[12] = tested on: OVCAR-5; experiment: NCI 60 cell line screen (Ovarian Cancer); type: cell-based, human; conditions: for GI50: Homo sapiens, OVCAR-5, NCI 5 dose assay; for Growth percentage: OVCAR-5, single dose 10 µM
[13] = target: T1, CYP19 (aromatase) (Homo sapiens, UniProt P11511); experiment: cytochrome P450 assay (DBF fluorescence); conditions: for pIC50: IC50 CYP19; for inhibition at 20 µg/mL: read-out: % Inhibition at 20 µg/mL CYP19
T1 sequence (P11511 1-503): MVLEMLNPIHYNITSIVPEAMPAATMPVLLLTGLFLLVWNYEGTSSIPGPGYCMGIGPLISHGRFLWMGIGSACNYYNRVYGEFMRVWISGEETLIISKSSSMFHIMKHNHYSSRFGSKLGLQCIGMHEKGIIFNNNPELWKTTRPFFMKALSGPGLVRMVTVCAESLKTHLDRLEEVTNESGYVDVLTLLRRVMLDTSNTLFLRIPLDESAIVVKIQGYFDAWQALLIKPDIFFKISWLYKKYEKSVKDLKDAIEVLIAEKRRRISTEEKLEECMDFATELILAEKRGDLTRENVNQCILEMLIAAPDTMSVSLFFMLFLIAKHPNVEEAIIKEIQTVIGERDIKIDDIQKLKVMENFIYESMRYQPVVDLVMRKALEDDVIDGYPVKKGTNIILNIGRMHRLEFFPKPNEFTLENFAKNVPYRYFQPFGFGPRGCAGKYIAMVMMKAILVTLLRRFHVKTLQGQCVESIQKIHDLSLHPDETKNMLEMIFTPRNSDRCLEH

[14] = tested on: NCI-H552; experiment: NCI 60 cell line screen (Non-Small Cell Lung Cancer); type: cell-based, human; conditions: for GI50: Homo sapiens, 60 cell, NCI-H552, NCI 5 dose assay; for Growth percentage: NCI-H552, single dose 10 µM
[15] = tested on: Bcl-2; experiment: Western blot in MCF-7 cells; type: cell-based, human; conditions: MCF-7, 1 μM
Experimental: (§1) MCF-7 cells were seeded at a density of 1 × 10^5 cells/flask (10 mL) in T25 flasks. After 48 h, whole cell lysates were prepared from untreated cells or cells treated with vehicle control (EtOH, 0.1% v/v) or selected compound 21l or 24 (1 μM). MCF-7 cells were harvested in Radioimmunoprecipitation assay buffer (RIPA) buffer supplemented with protease inhibitors (Roche Diagnostics), phosphatase inhibitor cocktail 2 (Sigma-Aldrich), and phosphatase inhibitor cocktail 3 (Sigma-Aldrich). Equal quantities of protein (as determined by a bicinchoninic acid assay (BCA assay) were resolved by SDS-PAGE (12%) followed by transfer to polyvinylidene fluoride PVDF membranes. Membranes were blocked in 5% bovine serum albumin/Tris-buffered saline with 0.1% Tween®20 Detergent (TBST) for 1 h. Membranes were incubated in the relevant primary antibodies at 4 °C overnight, washed with TBST, and incubated in horseradish peroxidase-conjugated secondary antibody for 1 h at rt and washed again. Western blot analysis was performed as described above using antibodies directed against Mcl-1 (1:1000) (Millipore), Bcl-2 [1:500] (Millipore), and PARP followed by incubation with a horseradish peroxidase-conjugated anti-mouse antibody (1:2000) (Promega, Madison, WI, USA). All blots were probed with anti-glyceraldehyde 3-phosphate dehydrogenase (GAPDH) antibody (1:5000) (Millipore) to confirm equal loading. Proteins were detected using enhanced chemiluminescent Western blot detection (Clarity Western ECL substrate) (Bio Rad) on the ChemiDoc MP System (Bio Rad). Experiments were performed on three independent occasions.

[16] = tested on: PARP; experiment: Western blot in MCF-7 cells; type: cell-based, human; conditions: MCF-7, 1 μM, vs vehicle
Experimental: as §1

[17] = tested on: Mcl-1; experiment: Western blot in MCF-7 cells; type: cell-based, human; conditions: MCF-7, 1 μM
Experimental: as §1

| SMILES | Growth percentage [1] | GI50 [2] | Growth percentage [2] | GI50 [3] | Growth percentage [3] | Growth percentage [4] | GI50 [4] | GI50 [5] | Growth percentage [5] | Growth percentage [6] | GI50 [6] | cell death [7] | GI50 [8] | Growth percentage [8] | Growth percentage [9] | GI50 [9] | Growth percentage [11] | Growth percentage [12] | inhibition at 20 µg/mL [13] | Growth percentage [14] | other results |
| --- | --- | --- | --- | --- | --- | --- | --- | --- | --- | --- | --- | --- | --- | --- | --- | --- | --- | --- | --- | --- | --- |
| COc1ccc(C(c2cc(OC)c(OC)c(OC)c2)n2cncn2)cc1O (stereo not shown) [19e, 5-((1H-1,2,4-Triazol-1-yl)(3,4,5-Trimethoxyphenyl)methyl)-2-Methoxyphenol] | 57.04% | 0.431 µM | 29.08% | 0.3 µM | 9.34% | 43.92% | 9.69 µM | 0.969 µM | 18.6% | 25.25% | 1.35 µM | approximately 50% | 0.418 µM | 21.79% | 32.17% | 0.514 µM | 39.79% | 72.98% | 85.3% | 12.78% | effect on microtubule network of MCF-7 cells [10]: disorganised microtubule networks; GI50 [11]: 2.24 µM; GI50 [12]: 1.99 µM; pIC50 [13]: 4.54 and 4.53; inhibition at 20 µM ([13]; read-out: inhibition of CYP19): > 85%; GI50 [14]: 0.395 µM |
| COc1ccc(C(c2cc(OC)c(OC)c(OC)c2)n2ccnc2)cc1O (stereo not shown) [21l, 5-((1H-Imidazol-1-yl)(3,4,5-Trimethoxyphenyl)Methyl)-2-Methoxyphenol] | 62.95% | 0.387 µM | 28.61% | 0.217 µM | 9.52% | 25.77% | 28.6 µM | 0.836 µM | 12.80% | 24.97% | 1.72 µM | approximately 50% | 0.389 µM | 17.05% | 29.46% | 0.516 µM | 30.23% | 71.11% | 74.7% | 12.12% | expression level of Bcl-2 [15]: no change; expression of full-length PARP (116 kDa) [16]: significant reduction; expression level of Mcl-1 [17]: no change; effect on microtubule network of MCF-7 cells [10]: disorganised microtubule networks; GI50 [11]: 0.702 µM; GI50 [12]: 0.648 µM; GI50 [14]: 0.247 µM |
| COc1ccc(C(c2cc(OC)c(OC)c(OC)c2)N2CCCC2)cc1 (stereo not shown) [25g] | 80.08% |  | 47.76% |  | 95.69% | 85.48% |  |  | 77.65% | 89.14% |  |  |  | 43.91% | 79.46% |  | 87.78% | 92.64% |  | 58.47% |  |
| COc1ccc(C(c2cc(OC)c(OC)c(OC)c2)N2CCN(Cc3ccccc3)CC2)cc1 (stereo not shown) [27d] | 78.33% |  | 43.57% |  | 81.24% | 70.59% |  |  | 78.38% | 91.92% |  |  |  | 40.62% | 69.72% |  | 82.69% | 84.69% |  | 52.38% |  |
| COc1ccc(C(c2cc(OC)c(OC)c(OC)c2)N2CCCCC2)cc1 (stereo not shown) [26b, 1-((4-Methoxyphenyl)(3,4,5-Trimethoxyphenyl)Methyl)Piperidine] | 47.22% |  | 14.47% |  | 27.71% | 44.15% |  |  | 49.14% | 79.59% |  |  |  | 30.23% | 29.82% |  | 59.13% | 69.57% |  | 19.85% |  |
| COc1ccc(C(c2cc(OC)c(OC)c(OC)c2)n2nccn2)cc1O (stereo not shown) [compound 24] |  |  |  |  |  |  |  |  |  |  |  |  |  |  |  |  |  |  | 0.01% |  | expression level of Bcl-2 [15]: no change; expression of full-length PARP (116 kDa) [16]: significant reduction; expression level of Mcl-1 [17]: no change; pIC50 [13]: < 4.27 |
